Columns and labels:
[1] = xn = mol fraction of the nth substance listed
[2] = refractive index (Na D-line) (dimensionless); xn = mol fraction of the nth substance listed; details: 101 kPa, Liquid
[3] = refractive index (Na D-line) (dimensionless); details: 101.33 kPa, Liquid

CCCS(=O)CCC [dipropyl sulfoxide] + O
Details	refractive index, [2]	surface tension liquid-gas, [1] [mN/m]
298.15 K, x1 = 0.0105	1.344	52.3
298.15 K, x1 = 0.01985	1.3516	–
298.15 K, x1 = 0.0199	–	47.4
298.15 K, x1 = 0.0469	1.374	42.2
298.15 K, x1 = 0.0998	1.4009	39.6
298.15 K, x1 = 0.2019	1.4305	37.5
298.15 K, x1 = 0.2809	1.4395	37.2
298.15 K, x1 = 0.3975	1.446	35.8
298.15 K, x1 = 0.5001	–	35.4
298.15 K, x1 = 0.5049	1.4502	–
298.15 K, x1 = 0.6818	1.455	34.3
298.15 K, x1 = 0.9002	1.458	–
303.15 K, x1 = 0.0105	1.343	51.1
303.15 K, x1 = 0.01985	1.351	–
303.15 K, x1 = 0.0199	–	46.4
303.15 K, x1 = 0.0469	1.3725	41.5
303.15 K, x1 = 0.0998	1.399	38.9
303.15 K, x1 = 0.2019	1.4285	37
303.15 K, x1 = 0.2809	1.4375	36.5
303.15 K, x1 = 0.3975	1.4455	35.2
303.15 K, x1 = 0.5001	–	34.9
303.15 K, x1 = 0.5049	1.4495	–
303.15 K, x1 = 0.6818	1.454	34.2
303.15 K, x1 = 0.9002	1.4555	–
308.15 K, x1 = 0.0105	1.342	49.9
308.15 K, x1 = 0.01985	1.3506	–
308.15 K, x1 = 0.0199	–	45.3
308.15 K, x1 = 0.0469	1.3711	40.7
308.15 K, x1 = 0.0998	1.398	38.1
308.15 K, x1 = 0.2019	1.4245	36.5
308.15 K, x1 = 0.2809	1.435	36
308.15 K, x1 = 0.3975	1.4445	34.5
308.15 K, x1 = 0.5001	–	34.3
308.15 K, x1 = 0.5049	1.4486	–
308.15 K, x1 = 0.6818	1.452	33.5
308.15 K, x1 = 0.9002	1.454	–
313.15 K, x1 = 0.0105	–	48.8
313.15 K, x1 = 0.0199	–	44.4
313.15 K, x1 = 0.0469	–	40
313.15 K, x1 = 0.0998	–	37.3
313.15 K, x1 = 0.2019	–	35.9
313.15 K, x1 = 0.2809	–	35
313.15 K, x1 = 0.3975	–	34.1
313.15 K, x1 = 0.5001	–	33.8
313.15 K, x1 = 0.6818	–	32.9
318.15 K, x1 = 0.0105	–	47.6
318.15 K, x1 = 0.0199	–	44.3
318.15 K, x1 = 0.0469	–	39.3
318.15 K, x1 = 0.0998	–	36.6
318.15 K, x1 = 0.2019	–	35
318.15 K, x1 = 0.2809	–	34.4
318.15 K, x1 = 0.3975	–	33.4
318.15 K, x1 = 0.5001	–	33.3
318.15 K, x1 = 0.6818	–	32.2
323.15 K, x1 = 0.0105	–	46.6
323.15 K, x1 = 0.0199	–	43.2
323.15 K, x1 = 0.0469	–	38.5
323.15 K, x1 = 0.0998	–	35.7
323.15 K, x1 = 0.2019	–	34.4
323.15 K, x1 = 0.2809	–	33.8
323.15 K, x1 = 0.3975	–	32.8
323.15 K, x1 = 0.5001	–	32.7
323.15 K, x1 = 0.6818	–	31.6
328.15 K, x1 = 0.0105	–	45.6
328.15 K, x1 = 0.0199	–	42.2
328.15 K, x1 = 0.0469	–	37.8
328.15 K, x1 = 0.0998	–	35
328.15 K, x1 = 0.2019	–	33.7
328.15 K, x1 = 0.2809	–	33.1
328.15 K, x1 = 0.3975	–	32.2
328.15 K, x1 = 0.5001	–	32.1
328.15 K, x1 = 0.6818	–	30.8

CC(C)S(=O)C(C)C [2,2'-sulfinylbispropane] + O
Details	refractive index, [2]	surface tension liquid-gas, [1] [mN/m]
298.15 K, x1 = 0.0087	1.3435	52.5
298.15 K, x1 = 0.0197	1.353	48.8
298.15 K, x1 = 0.0505	1.38	–
298.15 K, x1 = 0.0987	1.407	–
298.15 K, x1 = 0.4035	1.453	35.9
298.15 K, x1 = 0.6002	1.46	33.9
298.15 K, x1 = 0.7756	1.4625	32.6
298.15 K, x1 = 0.8899	1.4635	32.2
303.15 K, x1 = 0.0087	1.343	52.4
303.15 K, x1 = 0.0197	1.352	48.1
303.15 K, x1 = 0.0505	1.3785	42.9
303.15 K, x1 = 0.0987	1.406	–
303.15 K, x1 = 0.4035	1.451	34.6
303.15 K, x1 = 0.6002	1.4575	33.3
303.15 K, x1 = 0.7756	1.461	32.1
303.15 K, x1 = 0.8899	1.4625	31.7
308.15 K, x1 = 0.0087	1.342	51.5
308.15 K, x1 = 0.0197	1.3515	47.3
308.15 K, x1 = 0.0505	1.3775	41.8
308.15 K, x1 = 0.0987	1.404	35.1
308.15 K, x1 = 0.4035	1.448	34.1
308.15 K, x1 = 0.6002	1.456	32.7
308.15 K, x1 = 0.7756	1.459	31.5
308.15 K, x1 = 0.8899	1.4605	31.1
313.15 K, x1 = 0.0087	–	50.6
313.15 K, x1 = 0.0197	–	46.6
313.15 K, x1 = 0.0505	–	41.2
313.15 K, x1 = 0.0987	–	36
313.15 K, x1 = 0.4035	–	33.4
313.15 K, x1 = 0.6002	–	32.1
313.15 K, x1 = 0.7756	–	30.9
313.15 K, x1 = 0.8899	–	30.6
318.15 K, x1 = 0.0087	–	49.8
318.15 K, x1 = 0.0197	–	45.8
318.15 K, x1 = 0.0505	–	40.6
318.15 K, x1 = 0.0987	–	37
318.15 K, x1 = 0.4035	–	32.8
318.15 K, x1 = 0.6002	–	31.5
318.15 K, x1 = 0.7756	–	30.3
318.15 K, x1 = 0.8899	–	30
323.15 K, x1 = 0.0087	–	48.9
323.15 K, x1 = 0.0197	–	45
323.15 K, x1 = 0.0505	–	39.9
323.15 K, x1 = 0.0987	–	36.7
323.15 K, x1 = 0.4035	–	31.8
323.15 K, x1 = 0.6002	–	30.4
323.15 K, x1 = 0.7756	–	29.8
323.15 K, x1 = 0.8899	–	29.5
328.15 K, x1 = 0.0087	–	48
328.15 K, x1 = 0.0197	–	43.7
328.15 K, x1 = 0.0505	–	39.7
328.15 K, x1 = 0.0987	–	36.4
328.15 K, x1 = 0.4035	–	31
328.15 K, x1 = 0.6002	–	29.8
328.15 K, x1 = 0.7756	–	29.3
328.15 K, x1 = 0.8899	–	28.9

CC[S+]([O-])CC [diethyl sulfoxide] + O
Details	refractive index, [2]	surface tension liquid-gas, [1] [mN/m]
298.15 K, x1 = 0.0099	1.3415	65.5
298.15 K, x1 = 0.0207	–	62.5
298.15 K, x1 = 0.0513	1.3735	55.4
298.15 K, x1 = 0.1001	1.399	50.9
298.15 K, x1 = 0.1999	1.43	46
298.15 K, x1 = 0.2999	1.446	42.8
298.15 K, x1 = 0.4091	1.457	–
298.15 K, x1 = 0.4908	–	40.4
298.15 K, x1 = 0.5189	1.458	–
298.15 K, x1 = 0.5803	1.4605	–
298.15 K, x1 = 0.7123	1.4645	37.6
298.15 K, x1 = 0.7741	1.466	–
303.15 K, x1 = 0.0099	1.332	64.8
303.15 K, x1 = 0.0207	–	61.5
303.15 K, x1 = 0.0513	1.3675	54.9
303.15 K, x1 = 0.1001	1.373	50.2
303.15 K, x1 = 0.1999	1.428	45.2
303.15 K, x1 = 0.2999	1.4445	42
303.15 K, x1 = 0.4091	1.4555	–
303.15 K, x1 = 0.4908	–	39.8
303.15 K, x1 = 0.5189	1.457	–
303.15 K, x1 = 0.5803	1.4585	–
303.15 K, x1 = 0.7123	1.463	37.1
303.15 K, x1 = 0.7741	1.464	–
308.15 K, x1 = 0.0099	1.3315	64.1
308.15 K, x1 = 0.0207	–	60.4
308.15 K, x1 = 0.0513	1.3685	54
308.15 K, x1 = 0.1001	1.372	49.5
308.15 K, x1 = 0.1999	1.4265	44.2
308.15 K, x1 = 0.2999	1.443	41.9
308.15 K, x1 = 0.4091	1.453	–
308.15 K, x1 = 0.4908	–	39.3
308.15 K, x1 = 0.5189	1.455	–
308.15 K, x1 = 0.5803	1.4565	–
308.15 K, x1 = 0.7123	1.4615	37
308.15 K, x1 = 0.7741	1.462	–
313.15 K, x1 = 0.0099	–	62.8
313.15 K, x1 = 0.0207	–	59.3
313.15 K, x1 = 0.0513	–	53.1
313.15 K, x1 = 0.1001	–	48.4
313.15 K, x1 = 0.1999	–	47.1
313.15 K, x1 = 0.2999	–	44.3
313.15 K, x1 = 0.4908	–	38.6
313.15 K, x1 = 0.7123	–	36.5
318.15 K, x1 = 0.0099	–	61.8
318.15 K, x1 = 0.0207	–	58.4
318.15 K, x1 = 0.0513	–	52.4
318.15 K, x1 = 0.1001	–	47.7
318.15 K, x1 = 0.1999	–	46.1
318.15 K, x1 = 0.2999	–	43.2
318.15 K, x1 = 0.4908	–	38
318.15 K, x1 = 0.7123	–	35.7
323.15 K, x1 = 0.0099	–	60.8
323.15 K, x1 = 0.0207	–	56.8
323.15 K, x1 = 0.0513	–	50.5
323.15 K, x1 = 0.1001	–	46.5
323.15 K, x1 = 0.1999	–	45.3
323.15 K, x1 = 0.2999	–	41.6
323.15 K, x1 = 0.4908	–	37.3
323.15 K, x1 = 0.7123	–	35
328.15 K, x1 = 0.0099	–	59.9
328.15 K, x1 = 0.0207	–	56.4
328.15 K, x1 = 0.0513	–	49.7
328.15 K, x1 = 0.1001	–	45.7
328.15 K, x1 = 0.1999	–	43.4
328.15 K, x1 = 0.2999	–	40.7
328.15 K, x1 = 0.4908	–	36.6
328.15 K, x1 = 0.7123	–	34.4

C[S+](C)[O-] [dimethyl sulfoxide]
Details	surface tension liquid-gas [mN/m]
298.15 K	41.7
303.15 K	41
308.15 K	40.3
313.15 K	39.7
318.15 K	39.1
323.15 K	38.5
328.15 K	37.9

[3]
Details	refractive index
298.15 K	1.4765
303.15 K	1.474
308.15 K	1.472

CC[S+]([O-])CC [diethyl sulfoxide]
Details	surface tension liquid-gas [mN/m]
298.15 K	34.6
303.15 K	34.1
308.15 K	33.7
313.15 K	33.2
318.15 K	32.7
323.15 K	32.4
328.15 K	32

[3]
Details	refractive index
298.15 K	1.468
303.15 K	1.466
308.15 K	1.464

CCCS(=O)CCC [dipropyl sulfoxide]
Details	surface tension liquid-gas [mN/m]
298.15 K	32.6
303.15 K	32
308.15 K	31.5
313.15 K	31
318.15 K	30.5
323.15 K	29.9
328.15 K	29.4

[3]
Details	refractive index
298.15 K	1.4595
303.15 K	1.458
308.15 K	1.456

CC(C)S(=O)C(C)C [2,2'-sulfinylbispropane]
Details	surface tension liquid-gas [mN/m]
298.15 K	31.8
303.15 K	31.2
308.15 K	30.7
313.15 K	30.3
318.15 K	29.8
323.15 K	29.5
328.15 K	29.1

[3]
Details	refractive index
298.15 K	1.4645
303.15 K	1.462
308.15 K	1.4595
